EC50 and IC50 data for 22 compounds are collected here from patent US20220380347A1, “INHIBITORS OF CYSTEINE PROTEASES AND METHODS OF USE THEREOF” (Pardes Biosciences, Inc., priority 2020, published 2022).

Where two headings read alike, the source gives them in different places.

The target of assay [1] is 229E Mpro (Human coronavirus 229E, UniProt P0C6X1). Nature of the assay: 229E Mpro enzymatic assay (standard methods, SARS-CoV2 Mpro assay given as exemplary). Type of assay: biochemical, human coronavirus (HCov) 229E. A digest of the protocol:
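Run by standard methods, with the SARS-CoV-2 Mpro protocol given as the model: E. coli-expressed C-His6 protease at 25 nM and substrate at 25 μM (Km 13.5 μM). Buffer pH 7.3 with 5 mM TCEP and 0.1% BSA; % inhibition versus controls fitted to variable-slope log(inhibitor)-response for IC50.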

The test system of assay [2] is HCov OC43. The assay is described as follows: HCoV OC43 cytopathic effect (CPE) assay, CellTiter Glo. Type of assay: cell-based, human coronavirus (HCov) OC43.
Assay [3] addresses COVID-19 (nCoV-2019, SARS-CoV2) Mpro (Severe acute respiratory syndrome coronavirus 2, UniProt P0DTD1). The assay is described as follows: COVID-19 (nCoV-2019, SARS-CoV2) Mpro enzymatic assay. The settings on record: 25 nM Mpro, 25 μM substrate; read-out: COVID-19 Mpro IC50. The format is biochemical.
Where [4] appears, read: Betacoronavirus 1, OC43, read-out: OC43 IC50 (uM) MEDIAN, median.
Setting [5] is: read-out: OC43 IC50 (uM) MEDIAN, median.

Sequence of 229E Mpro (P0C6X1 2966-3267): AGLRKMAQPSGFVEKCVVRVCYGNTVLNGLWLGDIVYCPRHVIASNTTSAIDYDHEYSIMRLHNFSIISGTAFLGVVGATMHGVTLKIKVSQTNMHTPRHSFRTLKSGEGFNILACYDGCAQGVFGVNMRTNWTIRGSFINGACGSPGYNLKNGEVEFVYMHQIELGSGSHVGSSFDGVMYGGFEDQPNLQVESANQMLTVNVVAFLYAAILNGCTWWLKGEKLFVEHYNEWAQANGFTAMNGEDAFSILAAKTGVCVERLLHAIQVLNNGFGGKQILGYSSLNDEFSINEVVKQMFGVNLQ

In the case of `CC(C)(C)c1ccc(N(C(=O)[C@H]2CCCN2C#N)C(C(=O)N2CCOCC2)c2cccnc2)cc1` (single isomer, unassigned) [Compound 959 Isomer 1], the 50% effective concentration (EC50) in assay [1] (229E Mpro EC50) lay in the range of 2000 to 10000 nM. The IC50 was 10 to 30 µM in assay [2] (read-out: OC43 IC50 (uM) MEDIAN, median, listed as 959 Isomer 1) and greater than 30000 nM in assay [3].

For the compound `CC(C)(C)c1ccc(N(C(=O)[C@H]2CCCN2C#N)C(C(=O)N2CCOCC2)c2cccnc2)cc1` (single isomer, unassigned) [Compound 959 Isomer 2], in assay [1] (229E Mpro EC50), the concentration for a half-maximal effect (EC50) is less than 2000 nM. The IC50 fell in the range of 2 to 10 µM in assay [2] (read-out: OC43 IC50 (uM) MEDIAN, median, listed as 959 Isomer 2) and 2000 to 10000 nM in assay [3].

For `CC(C)(C)c1ccc(N(C(=O)[C@H]2CCCN2C#N)C(C(=O)N2CCNC(=O)C2)c2cccnc2)cc1` (single isomer, unassigned) [Compound 961 Isomer 1], the concentration for a half-maximal effect (EC50) in assay [1] (229E Mpro EC50) was less than 2000 nM. Besides, the IC50 in assay [2] (read-out: OC43 IC50 (uM) MEDIAN, median, listed as 961 Isomer 1) fell in the range of 2 to 10 µM; in assay [3] it was 2000 to 10000 nM.

`CC(C)(C)c1ccc(N(C(=O)[C@H]2CCCN2C#N)C(C(=O)N2CCNC(=O)C2)c2cccnc2)cc1` (single isomer, unassigned) [Compound 961 Isomer 2] returned a 50% effective concentration (EC50) in assay [1] (229E Mpro EC50) of 2000 to 10000 nM. In addition, the concentration for half-maximal inhibition (IC50) in assay [2] (read-out: OC43 IC50 (uM) MEDIAN, median, listed as 961 Isomer 2) was 10 to 30 µM; in assay [3], greater than 30000 nM.

In the case of `CC(C(=O)NC1CCC(F)(F)CC1)(c1cccnc1)N(C(=O)[C@H]1C[C@@](C)(O)CN1C#N)c1ccc(S(F)(F)(F)(F)F)cc1` (single isomer, unassigned) [Compound 1077 Isomer 1], the 50% effective concentration (EC50) in assay [1] (229E Mpro EC50) is less than 2000 nM. Besides, the half-inhibitory concentration (IC50) was 2 to 10 µM in assay [2] (setting [4]) and 10000 to 30000 nM in assay [3].

Regarding `CC(C(=O)NC1CCC(F)(F)CC1)(c1cccnc1)N(C(=O)[C@H]1C[C@@](C)(O)CN1C#N)c1ccc(S(F)(F)(F)(F)F)cc1` (single isomer, unassigned) [Compound 1077 Isomer 2], the 50% effective concentration (EC50) in assay [1] (read-out: 229E Mpro EC50) is less than 2000 nM. In addition, the half-maximal inhibitory concentration (IC50) in assay [2] (setting [5]) is less than 2 µM; in assay [3] it was less than 2000 nM.

Consider `N#CN1C[C@H]2C[C@H]2[C@@H]1C(=O)N(c1ccc(S(F)(F)(F)(F)F)cc1)C(C(=O)NC1CCC(F)(F)CC1)c1cncc(F)c1` (single isomer, unassigned) [Compound 1095b Isomer 1], for which the EC50 in assay [1] (229E Mpro EC50) is less than 2000 nM. For the same compound, the IC50 is less than 2 µM in assay [2] (setting [4]) and less than 2000 nM in assay [3].

In assay [1] (229E Mpro EC50), `N#CN1C[C@H](F)C[C@@H]1C(=O)N(c1ccc(S(F)(F)(F)(F)F)cc1)C(C(=O)NC1CCC(F)(F)CC1)c1cncc(F)c1` (single isomer, unassigned) [Compound 1098 Isomer 1] displayed an EC50 of less than 2000 nM. Also, the IC50 fell in the range of 2 to 10 µM in assay [2] (setting [4]) and 2000 to 10000 nM in assay [3].

For the compound `N#CN1C[C@H](F)C[C@@H]1C(=O)N(c1ccc(S(F)(F)(F)(F)F)cc1)C(C(=O)NC1CCC(F)(F)CC1)c1cncc(F)c1` (single isomer, unassigned) [Compound 1098 Isomer 2], in assay [1] (read-out: 229E Mpro EC50), the EC50 was less than 2000 nM. For the same compound, the IC50 in assay [2] (setting [5]) is less than 2 µM; in assay [3], less than 2000 nM.

For the compound `N#CN1C[C@@H](F)C[C@@H]1C(=O)N(c1ccc(S(F)(F)(F)(F)F)cc1)C(C(=O)NC1CCC(F)(F)CC1)c1cncc(F)c1` (single isomer, unassigned) [Compound 1099 Isomer 1], the EC50 in assay [1] (229E Mpro EC50) was less than 2000 nM. Moreover, the IC50 in assay [2] (setting [4]) is less than 2 µM; in assay [3], less than 2000 nM.

With `N#CN1C[C@@H](F)C[C@@H]1C(=O)N(c1ccc(S(F)(F)(F)(F)F)cc1)C(C(=O)NC1CCC(F)(F)CC1)c1cncc(F)c1` (single isomer, unassigned) [Compound 1099 Isomer 2], the EC50 in assay [1] (read-out: 229E Mpro EC50) was less than 2000 nM. In addition, the IC50 in assay [2] (setting [5]) was 2 to 10 µM; in assay [3], less than 2000 nM.

In assay [1] (229E Mpro EC50), `CO[C@@H]1C[C@H](C(=O)N(c2ccc(S(F)(F)(F)(F)F)cc2)C(C(=O)N(C)CC(=O)NC2CC2)c2cccnc2)N(C#N)C1` (single isomer, unassigned) [Compound 1122] gave a concentration giving a half-maximal response (EC50) of less than 2000 nM. Besides, the figures for the 50% inhibitory concentration (IC50) in assay [2] (setting [4]) and in assay [3] were less than 2 µM and less than 2000 nM, respectively.

As for `CC1(C)CCNc2cc(N(C(=O)[C@H]3C[C@@](C)(O)CN3C#N)C(C(=O)NC3CCC(F)(F)CC3)c3cncc(F)c3)ccc21` (single isomer, unassigned) [Compound 1127 Isomer 1], in assay [1] (229E Mpro EC50), the EC50 was less than 2000 nM. For the same compound, the half-inhibitory concentration (IC50) in assay [2] (setting [5]) was less than 2 µM; in assay [3] it was less than 2000 nM.

Turning to `CC1(C)CCNc2cc(N(C(=O)[C@H]3C[C@@](C)(O)CN3C#N)C(C(=O)NC3CCC(F)(F)CC3)c3cncc(F)c3)ccc21` (single isomer, unassigned) [Compound 1127 Isomer 2], the EC50 in assay [1] (read-out: 229E Mpro EC50) is less than 2000 nM. For the same compound, the half-inhibitory concentration (IC50) in assay [2] (setting [4]) is less than 2 µM; in assay [3], less than 2000 nM.

In turn, `CC1(C)CN(C#N)[C@@H](C(=O)N(c2ccc(C(C)(C)C)cc2)C(C(=O)NC2CCOCC2)c2cccnc2)CO1` (single isomer, unassigned) [Compound 1141] yielded an EC50 in assay [1] (229E Mpro EC50) of less than 2000 nM. The results for the IC50 in assay [2] (setting [4]) and in assay [3] were 2 to 10 µM and less than 2000 nM, respectively.

Take `N#CN1CC(=O)NCC1C(=O)N(c1ccc(S(F)(F)(F)(F)F)cc1)C(C(=O)NC1CCC(F)(F)CC1)c1cncc(F)c1` (single isomer, unassigned) [Compound 1160 Isomer 1, 1-cyano-N-[2-[(4,4-difluorocyclohexyl)amino]-1-(5-fluoro-3-pyridyl)-2-oxo-ethyl]-5-oxo-N-[4-(pentafluoro-λ6-sulfanyl)phenyl]piperazine-2-carboxamide]: in assay [1] (229E Mpro EC50), the concentration giving a half-maximal response (EC50) is less than 2000 nM. For the same compound, the IC50 in assay [2] (setting [4]) is less than 2 µM; in assay [3] it was less than 2000 nM.

`N#CN1CC(=O)NCC1C(=O)N(c1ccc(S(F)(F)(F)(F)F)cc1)C(C(=O)NC1CCC(F)(F)CC1)c1cncc(F)c1` (single isomer, unassigned) [Compound 1160 Isomer 2, 1-cyano-N-[2-[(4,4-difluorocyclohexyl)amino]-1-(5-fluoro-3-pyridyl)-2-oxo-ethyl]-5-oxo-N-[4-(pentafluoro-λ6-sulfanyl)phenyl]piperazine-2-carboxamide]: in assay [1] (229E Mpro EC50), the concentration for a half-maximal effect (EC50) lay within 2000 to 10000 nM. The IC50 lay in the range of 2 to 10 µM in assay [2] (read-out: OC43 IC50 (uM) MEDIAN, median, listed as 1160 Isomer 2) and 2000 to 10000 nM in assay [3].

`N#CN1CC(=O)NCC1C(=O)N(c1ccc(S(F)(F)(F)(F)F)cc1)C(C(=O)NC1CCC(F)(F)CC1)c1cncc(F)c1` (single isomer, unassigned) [Compound 1160 Isomer 3, 1-cyano-N-[2-[(4,4-difluorocyclohexyl)amino]-1-(5-fluoro-3-pyridyl)-2-oxo-ethyl]-5-oxo-N-[4-(pentafluoro-λ6-sulfanyl)phenyl]piperazine-2-carboxamide] had a concentration giving a half-maximal response (EC50) in assay [1] (229E Mpro EC50) of less than 2000 nM. Further, the IC50 in assay [2] (read-out: OC43 IC50 (uM) MEDIAN, median, listed as 1160 Isomer 3) lay in the range of 2 to 10 µM; in assay [3], 2000 to 10000 nM.

On to `N#CN1CC(=O)NCC1C(=O)N(c1ccc(S(F)(F)(F)(F)F)cc1)C(C(=O)NC1CCC(F)(F)CC1)c1cncc(F)c1` (single isomer, unassigned) [Compound 1160 Isomer 4, 1-cyano-N-[2-[(4,4-difluorocyclohexyl)amino]-1-(5-fluoro-3-pyridyl)-2-oxo-ethyl]-5-oxo-N-[4-(pentafluoro-λ^6-sulfanyl)phenyl]piperazine-2-carboxamide], for which the EC50 in assay [1] (229E Mpro EC50) was less than 2000 nM. The 50% inhibitory concentration (IC50) in assay [2] (read-out: OC43 IC50 (uM) MEDIAN, median, listed as 1160 Isomer 4) lay within 2 to 10 µM; in assay [3], 2000 to 10000 nM.

Turning to `CN1CC(C(=O)N(c2ccc(S(F)(F)(F)(F)F)cc2)C(C(=O)NC2CCC(F)(F)CC2)c2cncc(F)c2)N(C#N)CC1=O` (single isomer, unassigned) [Compound 1161 Isomer 1, 1-cyano-N-[2-[(4,4-difluorocyclohexyl)amino]-1-(5-fluoro-3-pyridyl)-2-oxo-ethyl]-4-methyl-5-oxo-N-[4-(pentafluoro-λ6-sulfanyl)phenyl]piperazine-2-carboxamide], in assay [1] (229E Mpro EC50), the EC50 was less than 2000 nM. Also, the IC50 was less than 2 µM in assay [2] (read-out: OC43 IC50 (uM) MEDIAN, median, listed as 1161 Isomer 1) and less than 2000 nM in assay [3].

Take `CN1CC(C(=O)N(c2ccc(S(F)(F)(F)(F)F)cc2)C(C(=O)NC2CCC(F)(F)CC2)c2cncc(F)c2)N(C#N)CC1=O` (single isomer, unassigned) [Compound 1161 Isomer 2, 1-cyano-N-[2-[(4,4-difluorocyclohexyl)amino]-1-(5-fluoro-3-pyridyl)-2-oxo-ethyl]-4-methyl-5-oxo-N-[4-(pentafluoro-λ6-sulfanyl)phenyl]piperazine-2-carboxamide]: the 50% effective concentration (EC50) in assay [1] (229E Mpro EC50) lay in the range of 2000 to 10000 nM. The IC50 in assay [2] (read-out: OC43 IC50 (uM) MEDIAN, median, listed as 1161 Isomer 2) is 2 to 10 µM; in assay [3], 2000 to 10000 nM.

In the case of `CN1CC(C(=O)N(c2ccc(S(F)(F)(F)(F)F)cc2)C(C(=O)NC2CCC(F)(F)CC2)c2cncc(F)c2)N(C#N)CC1=O` (single isomer, unassigned) [Compound 1161 Isomer 3, 1-cyano-N-[2-[(4,4-difluorocyclohexyl)amino]-1-(5-fluoro-3-pyridyl)-2-oxo-ethyl]-4-methyl-5-oxo-N-[4-(pentafluoro-λ6-sulfanyl)phenyl]piperazine-2-carboxamide], the 50% effective concentration (EC50) in assay [1] (229E Mpro EC50) fell in the range of 2000 to 10000 nM. Also, the IC50 lay in the range of 10 to 30 µM in assay [2] (read-out: OC43 IC50 (uM) MEDIAN, median, listed as 1161 Isomer 3) and 2000 to 10000 nM in assay [3].

The EC50 is the concentration needed to bring the measured effect to its halfway point. As usually defined, the IC50 is the concentration that gives 50% inhibition.
